Here are results for one compound from ChEMBL document CHEMBL3351803, “5Z-7-Oxozeaenol covalently binds to MAP2K7 at Cys218 in an unprecedented manner” (Bioorg Med Chem Lett, 2015).

Structures are written as SMILES.

Assay [1] has as its target T1, Dual specificity mitogen-activated protein kinase kinase 7 (Homo sapiens, UniProt O14733).
T1 sequence (O14733 whole entry): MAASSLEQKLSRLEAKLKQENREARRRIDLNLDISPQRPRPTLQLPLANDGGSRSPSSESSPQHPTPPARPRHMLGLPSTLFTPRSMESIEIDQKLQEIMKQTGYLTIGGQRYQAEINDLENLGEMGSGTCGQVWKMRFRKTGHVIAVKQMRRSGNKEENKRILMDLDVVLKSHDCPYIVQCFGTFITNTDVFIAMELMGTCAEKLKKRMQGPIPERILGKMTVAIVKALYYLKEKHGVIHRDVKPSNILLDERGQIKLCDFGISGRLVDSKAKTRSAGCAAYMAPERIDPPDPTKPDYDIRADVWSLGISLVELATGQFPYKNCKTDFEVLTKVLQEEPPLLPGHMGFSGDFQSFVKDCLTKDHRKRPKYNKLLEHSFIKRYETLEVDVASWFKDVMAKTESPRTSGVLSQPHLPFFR
The experiment in a line: Inhibition of MAP2K7 (unknown origin) using unphosphorylated GST-tagged JNK1 substrate protein assessed as phosphorylation by ELISA. (In general: ELISA stands for enzyme-linked immunosorbent assay.)

The target of assay [2] is Dual specificity mitogen-activated protein kinase kinase 1 (Homo sapiens, UniProt Q02750). Description: Inhibition of MAP2K1 (unknown origin) using unphosphorylated GST-tagged ERK2 substrate protein assessed as phosphorylation by ELISA.
Chain of Dual specificity mitogen-activated protein kinase kinase 1 (Q02750 whole entry): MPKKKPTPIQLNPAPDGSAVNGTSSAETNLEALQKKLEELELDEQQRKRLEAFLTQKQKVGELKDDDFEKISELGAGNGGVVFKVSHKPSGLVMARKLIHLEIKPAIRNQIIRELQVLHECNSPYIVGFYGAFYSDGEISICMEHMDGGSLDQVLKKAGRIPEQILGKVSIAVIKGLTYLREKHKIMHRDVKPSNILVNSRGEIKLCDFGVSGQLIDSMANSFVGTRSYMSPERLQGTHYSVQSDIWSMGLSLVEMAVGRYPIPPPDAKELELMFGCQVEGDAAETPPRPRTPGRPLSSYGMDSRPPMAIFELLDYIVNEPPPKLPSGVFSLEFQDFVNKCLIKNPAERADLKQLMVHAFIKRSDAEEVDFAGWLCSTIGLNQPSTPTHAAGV
In assay [3] the target is Mitogen-activated protein kinase 1 (Homo sapiens, UniProt P28482). Description: Inhibition of ERK2 (unknown origin) using FITC-labeled substrate peptide assessed as phosphorylation.
Chain of Mitogen-activated protein kinase 1 (P28482 whole entry): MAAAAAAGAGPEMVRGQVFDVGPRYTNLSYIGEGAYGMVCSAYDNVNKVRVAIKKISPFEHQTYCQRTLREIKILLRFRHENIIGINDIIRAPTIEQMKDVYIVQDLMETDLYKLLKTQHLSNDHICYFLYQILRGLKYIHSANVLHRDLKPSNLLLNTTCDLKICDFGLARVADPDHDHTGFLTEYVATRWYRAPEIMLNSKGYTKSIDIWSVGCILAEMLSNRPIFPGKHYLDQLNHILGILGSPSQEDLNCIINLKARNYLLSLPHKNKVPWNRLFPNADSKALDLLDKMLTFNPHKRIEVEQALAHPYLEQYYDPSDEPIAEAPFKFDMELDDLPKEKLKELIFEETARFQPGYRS

Usually IC50 stands for the point on the concentration scale where inhibition reaches its midpoint. For `COc1cc(O)c2c(c1)/C=C/C[C@H](O)[C@H](O)C(=O)/C=C\C[C@H](C)OC2=O`, the IC50 came to 1300 nM in assay [1], 80 nM in assay [2] and 6800 nM in assay [3].
